Source: US12083082B2, “Methods for treating neurodegenerative disorders” (Alzheon, Inc., priority 2018, dated 2024)

Experiments:
in vivo = conditions: rat, po
Source text: ALZ-801 is a valine conjugate of tramiprosate that has been optimized for improved pharmacokinetic properties and gastrointestinal tolerability. Chronic toxicology studies required for the advancement of ALZ-801 to Phase 3 have been completed, including the nonclinical safety characterization of ALZ-801, and the safety bridge to the extensive nonclinical toxicology and safety data for tramiprosate. […] See Hey et al., Clinical Pharmacokinetics and Safety of ALZ-801, a Novel Prodrug of Tramiprosate in Development for the Treatment of Alzheimer's Disease. Clin Pharmacokinetics 2018; 315-333 and Kocis et al., Elucidating the Abeta42 Anti-Aggregation Mechanism of Action of Tramiprosate in Alzheimer's Disease: Integrating Molecular Analytical Methods. Pharmacokinetic and Clinical Data. CNS Drugs 2017; 31:495-509. […] Both ALZ-801 and tramiprosate have consistent elimination half-life in plasma across species following repeated oral doses of ALZ-801, indicating no potential for accumulation after chronic dosing. Following conversion of ALZ-801 to tramiprosate, tramiprosate is consistently metabolized in vivo into a single major metabolite, 3-sulfopropanoic acid (3-SPA), in humans, mice, rats, dogs and minipigs.

[1] = target: T1, recombinant human Aβ42 peptide (Homo sapiens, UniProt P05067); assay: Ion mobility mass spectrometry (IMS MS) anti-Aβ42 oligomer activity / binding study; format: biochemical; parameters: key to Presence of Aβ42 Pentamer / Presence of Aβ42 Hexamer / Presence of Aβ42 Decamer / Presence of Aβ42 Dimer / Presence of Aβ42 Trimer / Presence of Aβ42 Tetramer: Y = yes, presence of oligomer species; N = no presence of oligomer species
T1 construct: recombinant human Aβ42 peptide; purchased BioLegend 843801
Method: The conditions used for mass spectrometry, using a Waters Synapt G2-S, were as follows: positive polarity in sensitivity mode, capillary=2.5 kV, nebulizer=2 mbar, source temperature=80° C., desolvation temperature=60° C., sample cone setting=35 V, source offset setting=60 V, and mass range=500 to 4000 m/z. These conditions were maintained throughout the study to ensure consistency of the data and to avoid influencing the detection of oligomers due to preferential ionization conditions.
Samples were directly infused into the mass spectrometer at a flow rate of 10 μL/min using a Protea PM-1000 Syringe Pump and Hamilton 1 mL Syringe. The data acquisition of the amyloid peptide was performed using a Waters Synapt G2-S quadrupole time of flight mass spectrometer (Q-TOF MS) with traveling wave ion mobility (Waters Corp., Milford, MA). The data were acquired using the systems sensitivity mode to allow for the detection of the less abundant oligomers. Samples were infused at room temperature. The IMS MS studies were conducted at Protea, Inc. (Morgantown, WV).
1 mg of recombinant human Aβ42 peptide from BioLegend (99% purity, cat #843801) was reconstituted in 200 μL of Fisher Optima LC/MS grade water (cat #W6-1) and vortexed vigorously for 2 minutes to solubilize the peptide creating a 5 mg/mL solution. Samples were then diluted to a final concentration of 22 pmol/μL prior to incubation. The sample mixtures were then incubated at room temperature for 0, 4 and 24 hours. After the acquisition of incubated samples was completed, the raw data were analyzed using the Waters MassLynx v2.4 suite with DriftScover v2.7 to visualize drift times for the peptide.
Aβ42 species characterization using IMS MS was performed by direct infusion at 22 pmol/μL in water. The peptide was prepared in water to maintain the native state conformation of the peptide and ion mobility data acquisition was performed to detect and characterize the conformational changes of the native state monomer and any oligomers that may have formed during the incubation.
The data acquisition for Aβ42 peptide was performed using a Waters Synapt G2-S quadrupole time of flight mass spectrometer (Q-TOF MS) with traveling wave ion mobility (Waters Corp., Milford, MA). The data were acquired using the systems sensitivity mode to allow for the detection of the less abundant oligomers. Samples were infused at room temperature as above.
1 mg of 3-SPA was reconstituted in 1 mL of Fisher Optima LC/MS grade water (cat #W6-1) and vortexed vigorously for 2 minutes until completely dissolved. The sample was then diluted to create […], and 22,000 pmol/μL solutions to perform a 100-fold, and 1,000-fold molar excess for the binding experiments with Aβ42 peptide.
1 mg of recombinant human Aβ42 peptide was reconstituted in 200 μL of Fisher Optima LC/MS grade water and vortexed vigorously to solubilize to a 5 mg/mL solution. Samples were then diluted to their final concentrations prior to incubation. The sample mixtures were incubated at room temperature for 0, 4 and 24 hours, followed by analysis as described above.
To address the high conformational flexibility of Aβ42 and to characterize its interaction with 3-SPA, we used ion mobility mass spectrometry (IMS), with a quadrupole time of flight mass spectrometer (Q-TOF MS) with traveling wave ion mobility. Resulting effect of modulation of Aβ conformational space is the prevention of oligomer formation. We have found not only concentration dependency but also time-dependency of this anti-Aβ42 oligomeric effect of 3-SPA as indicated in FIG. 3 and FIG. 4. 100- vs 1,000-fold molar excess of 3-SPA over Aβ42 results in a different sub-species profile of inhibition of Aβ42 oligomer formation. The activity is also compared with the same excess dependency of tramiprosate.

[2] = cited from earlier work
[3] = 100:1 excess ratio compound:protein
[4] = 1000:1 excess ratio compound:protein

T1 sequence (P05067 672-713 limits assumed): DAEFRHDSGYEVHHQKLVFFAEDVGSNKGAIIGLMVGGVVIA

Presence of Aβ42 Decamer [1, 3] | Presence of Aβ42 Dimer [1, 3] | Presence of Aβ42 Hexamer [1, 3] | Presence of Aβ42 Pentamer [1, 3] | Presence of Aβ42 Tetramer [1, 3] | Presence of Aβ42 Trimer [1, 3] | Presence of Aβ42 Decamer [1, 4] | Presence of Aβ42 Dimer [1, 4] | Presence of Aβ42 Hexamer [1, 4] | Presence of Aβ42 Pentamer [1, 4] | Presence of Aβ42 Tetramer [1, 4] | Presence of Aβ42 Trimer [1, 4] | Structure (SMILES) | NOAEL at 1 month (in vivo) | NOAEL at 6 month (in vivo) | Tolerability (in words) (in vivo) | Inhibition of formation of Aβ42 oligomers (in words) ([1]; 24 hours incubation, 1,000-fold excess) | Safety profile (in words) ([2]; Phase 3 trials and safety extension, exposures of up to 2.5 years) | Effect on cognition (in words) ([2]; subgroup analysis of subjects with the ε4 allele of APOE (APOE4))
 |  |  |  |  |  |  |  |  |  |  |  | CC(C)[C@H](N)C(=O)NCCCS(=O)(=O)O [ALZ-801] | 2000 mg/kg | 1500 mg/kg | well tolerated |  |  | 
N | N | Y | Y | Y | Y | N | N | N | N | N | N | NCCCS(=O)(=O)O [Tramiprosate, 3-amino-1-propanesulfonic acid, reference compound] |  |  |  | complete inhibition of formation of Aβ42 oligomers | favorable safety profile | positive and clinically meaningful benefit on cognition
